# Experimental data from patent US20080318792A1, “Extension of pollination period” (priority 2007, published 2008).
# Tests used:
# [1] = system: corn inbred lines B91 and B95; test: Field emergence and anthesis of inbred corn seed treated with ABA; format: in vivo
# Method: Seed of inbred lines B91 and B95 was obtained from Iowa State University. These inbreds are from the BSCB1 heterotic group, and are representative of many male parents used in hybrid corn seed production. ABA in the form of the ammonium salt was applied at rates of 0, 25, 50 and 100 g/cwt (as free acid). Application was performed as described under Example 2 above, except the CF-Clear and Color Coat Red (Becker Underwood) were applied at 0.5 oz/cwt, and Maxim XL (Syngenta) was applied at 0.334 oz/cwt, using a slurry rate of 15 oz/cwt. The seed samples were mechanically planted in small plots of one five hundredth acre each at Woodstock, Ill., Stoughton, Wis. and Winnebago, Ill. Three plots of each treatment were planted at each location. Standard cultural practices for corn production were used. The plots were examined daily, and seedling emergence counted in each plot every day or two during the month after planting. Data were analyzed as described under Example 2 above.
# [2] = system: Hughes 1883 hybrid corn seed; test: Soil germination/emergence of corn seed treated with different forms of ABA in slurry; format: in vivo; details: for delay: treatments with ABA vs control; for Final emergence / QR / T50: 25 g/cwt as free acid
# Method: Three forms of ABA were evaluated in this experiment 1) free acid, 2) ammonium salt, and 3) sodium salt. The cation is referred to as the “counter-ion” below. […] The treatments were made up in 3 ml samples of experimental aqueous seed treatment slurry. All of the seed treatment slurry samples contained CF-Clear film-forming agent and Colorcoat Red (Becker Underwood), each at 1 oz/cwt, and 0.167 oz/cwt Maxim XL fungicide (Syngenta). The slurry application volume was 20 oz/cwt (cwt=100 lbs of seed).
# One hundred gram samples of Hughes 1883 hybrid corn seed were treated with the experimental slurries using a Hege 11 seed treater with a six-inch bowl.
# The seed was planted in plastic boxes containing 1 kg of typical agricultural silt loam. Fifty seeds were planted 3 cm deep in each plastic box, and the soil in the box was adjusted to 21% soil moisture (wet-weight basis). Two replications of the experiment were incubated under constant light in a 25° C. chamber and two replications incubated under constant light in an 18° C. chamber. The boxes were watered up to the correct weight daily, and checked for emergence. Daily counts of seedlings were continued until emergence ceased. The final count of emerged seedlings was expressed as a percentage of the 50 seeds planted (GERM).
# The daily counts were converted to proportions of the final germination of the box, and a Gompertz curve was fitted to the data from each box using SAS Proc NLIN. From the parameters of the model, median germination time (T50) and quartile range (QR) were estimated for each box. Analysis of variance was performed and means calculated for each of the three responses (GERM, T50, QR).
# [3] = Stoughton, inbred B91, ABA (ammonium salt) 25 g/cwt as free acid
# [4] = Stoughton, inbred B91, ABA (ammonium salt) 50 g/cwt as free acid
# [5] = Stoughton, inbred B91, ABA (ammonium salt) 100 g/cwt as free acid
# [6] = Stoughton, inbred B95, ABA (ammonium salt) 25 g/cwt as free acid
# [7] = Stoughton, inbred B95, ABA (ammonium salt) 50 g/cwt as free acid
# [8] = Stoughton, inbred B95, ABA (ammonium salt) 100 g/cwt as free acid
# [9] = Winnebago, inbred B91, ABA (ammonium salt) 25 g/cwt as free acid
# [10] = Winnebago, inbred B91, ABA (ammonium salt) 50 g/cwt as free acid
# [11] = Winnebago, inbred B91, ABA (ammonium salt) 100 g/cwt as free acid
# [12] = Winnebago, inbred B95, ABA (ammonium salt) 25 g/cwt as free acid
# [13] = Winnebago, inbred B95, ABA (ammonium salt) 50 g/cwt as free acid
# [14] = Winnebago, inbred B95, ABA (ammonium salt) 100 g/cwt as free acid
# [15] = Woodstock, inbred B91, ABA (ammonium salt) 25 g/cwt as free acid
# [16] = Woodstock, inbred B91, ABA (ammonium salt) 50 g/cwt as free acid
# [17] = Woodstock, inbred B91, ABA (ammonium salt) 100 g/cwt as free acid
# [18] = Woodstock, inbred B95, ABA (ammonium salt) 25 g/cwt as free acid
# [19] = Woodstock, inbred B95, ABA (ammonium salt) 50 g/cwt as free acid
# [20] = Woodstock, inbred B95, ABA (ammonium salt) 100 g/cwt as free acid
compound,measurement,setting,value
"CC1=CC(=O)CC(C)(C)[C@@]1(O)/C=C/C(C)=C\C(=O)O [ABA, S-(+)-abscisic acid]",effect on anthesis,"[1]; Stoughton and Winnebago, ABA 25-100 g/cwt",progressively delayed anthesis
same,Final emergence,[1]; [3],96.2%
same,Median time to anthesis,[1]; [3],79.2 days
same,Median time to emergence,[1]; [3],11.9 days
same,Final emergence,[1]; [4],95.0%
same,Median time to anthesis,[1]; [4],80.1 days
same,Median time to emergence,[1]; [4],12.6 days
same,Final emergence,[1]; [5],94.3%
same,Median time to anthesis,[1]; [5],79.8 days
same,Median time to emergence,[1]; [5],14.1 days
same,Final emergence,[1]; [6],98.1%
same,Median time to anthesis,[1]; [6],81.8 days
same,Median time to emergence,[1]; [6],12.5 days
same,Final emergence,[1]; [7],98.1%
same,Median time to anthesis,[1]; [7],82.4 days
same,Median time to emergence,[1]; [7],14.1 days
same,Final emergence,[1]; [8],99.0%
same,Median time to anthesis,[1]; [8],81.3 days
same,Median time to emergence,[1]; [8],14.3 days
same,Final emergence,[1]; [9],98.5%
same,Median time to anthesis,[1]; [9],74.4 days
same,Median time to emergence,[1]; [9],8.8 days
same,Final emergence,[1]; [10],96.4%
same,Median time to anthesis,[1]; [10],75.1 days
same,Median time to emergence,[1]; [10],9.7 days
same,Final emergence,[1]; [11],94.4%
same,Median time to anthesis,[1]; [11],76.4 days
same,Median time to emergence,[1]; [11],11.5 days
same,Final emergence,[1]; [12],94.8%
same,Median time to anthesis,[1]; [12],79.8 days
same,Median time to emergence,[1]; [12],10.3 days
same,Final emergence,[1]; [13],95.0%
same,Median time to anthesis,[1]; [13],79.5 days
same,Median time to emergence,[1]; [13],11.3 days
same,Final emergence,[1]; [14],89.8%
same,Median time to anthesis,[1]; [14],80.8 days
same,Median time to emergence,[1]; [14],12.7 days
same,Final emergence,[1]; [15],99.0%
same,Median time to emergence,[1]; [15],11.4 days
same,Final emergence,[1]; [16],94.5%
same,Median time to emergence,[1]; [16],13.7 days
same,Final emergence,[1]; [17],92.0%
same,Median time to emergence,[1]; [17],14.3 days
same,Final emergence,[1]; [18],94.8%
same,Median time to emergence,[1]; [18],13.8 days
same,Final emergence,[1]; [19],96.8%
same,Median time to emergence,[1]; [19],15.3 days
same,Final emergence,[1]; [20],89.6%
same,Median time to emergence,[1]; [20],18.9 days
same,effect on final stand,[1]; any of the locations,did not significantly reduce final stand
same,effect on emergence from the soil,"[1]; every location, ABA 25-100 g/cwt",progressive and significant delay in emergence
same,delay as a fraction of the germination time of the control at the same temperature,[2]; 18 and 25° C.,roughly doubling the time to emergence
same,delay,[2]; 18° C.,5.8 days
same,Final emergence,[2]; soil 18° C.,97%
same,QR,[2]; soil 18° C.,2.96 days
same,T50,[2]; soil 18° C.,11.4 days
same,Final emergence,[2]; soil 25° C.,96%
same,QR,[2]; soil 25° C.,1.32 days
same,T50,[2]; soil 25° C.,7.7 days
same,delay,[2]; 25° C.,4.4 days
same,median-time-to-germination,"[2]; regardless of counter-ion, 18 and 25° C., p<0.0001",increased
same,Quartile range,"[2]; regardless of counter-ion, 18 and 25° C., p<0.0002",increased
